We go through seven compounds from patent publication US7855200B2, “Method for treatment of gastric ulcers and ulcers induced by aspirin” (Council of Scientific and Industrial Research, priority 2006, dated 2010).

In general, inhibition refers to the percentage by which the read-out fell short of the control.

Values joined by “and” are separate entries in the source; they are usually repeats but may differ in a detail not shown here. Equal entries are not always repeated.

Holding throughout (type): in vivo, albino rats
The subject of experiment [1] is acetyl salicylic acid induced gastric lesions. Kind of experiment: Acetyl salicylic acid (aspirin) induced gastric ulcer. Also on record: Ulcer index Mean(SE): scale not given here. Particulars: rats, 25 mg/kg per orally daily for five days, aspirin 200 mg/kg; for inhibition at 25 mg/kg: Rattus norvegicus, po, 120 h. The method, then: Stress induced gastric ulceration The commercially available drug ranitidine (sigma), Omeprazole (sigma) and sucralfate (Merck) were used as reference standard in experimental models. The Tween-80 (SD fine chemicals) was used as vehicle for the administration of the drug, which is used as control. Antiulcer activity of the compounds under taken was studied. The animals were divided into 20 groups of 6 animals each. Group 1 received the vehicle Tween 80 (1%, 1 ml) which served as the control. Group 2 received ranitidine at a dose of 50-mg/kg body weight, which served as standard for comparison. Group 3 to 20 at a dose of 25 mg/kg body weight. Rats were administered per orally with a daily dose of the compounds and the drug ranitidine for a period of five days and then fasted for 24 hours. The […] acetyl salicylic acid (aspirin) at a dose of 200 mg/kg body weight was administered as a suspension in tween-80 (1%), 30 min after the drug administration each day. All drugs were administered orally on the 6th day after the last administration of the drugs and the ulcer inducing agent aspirin, the rats were killed by cervical dislocation and their stomach were opened along the greater curvature and washed with luke warm saline and examined under a dissecting microscope. The ulcer index was calculated for each stomach. […] The antiulcer activity of the compounds was studied. The animals were divided into 19 groups of 6 animals each. Group 1 received the vehicle Tween 80 (1%, 1 ml) which served as the control. Group 2 received ranitidine at a dose of 50-mg/kg-body weight, which served as standard for comparison. […] Rats were administered per orally with a daily dose of the compounds and the drug ranitidine to respective groups for a period of five days and then fasted for 24 hours. The […] acetyl salicylic acid (aspirin) at a dose of 200 mg/kg body weight was administered as a suspension in tween-80 (1%), 30 min after the drug administration each day. All drugs were administered orally on ht […] day after the last administration of the drugs and the ulcer inducing agent aspirin, the rats were killed by cervical dislocation and their stomach were opened along the greater curvature and washed with luke warm saline and examined under a dissecting microscope.

Another experiment relates to Pylorus ligated rats. Kind of experiment: Pylorus ligated ulcers. Conditions: 25 mg/kg, 4 hours after pylorus ligation; for inhibition at 25 mg/kg: Rattus norvegicus. The source says:
(§1) The compounds taken under study for antigastric ulcer screening by four different models were selected using experimental albino rats: • 1. Aspirin induced gastric ulceration • 2. Pylorus ligated gastric ulceration • 3. Ethanol induced gastric ulceration • 4. Stress induced gastric ulceration
(§2) The commercially available drug ranitidine (sigma), Omeprazole (sigma) and sucralfate (Merck) were used as reference standard in experimental models. The Tween-80 (SD fine chemicals) was used as vehicle for the administration of the drug, which is used as control.
The animals were divided into 19 groups of 6 animals each. Animals were deprived of food for 48 hours but had free access to water. Group 1 received the vehicle Tween 80 (1%, 1 ml) which served as the control. Group 2 received ranitidine at a dose of 50-mg/kg-body weight, which served as standard for comparison. […] After one hour of administration of drug the stomach was ligated at the pylorus under ether anesthesia. 4 hours after pylorus ligation, the animals were sacrificed and the contents drained and centrifuges at 5000 rpm for 10 minutes. Aliquots of supernatant were used for determination of total acid by titrating with 0.01N NaOH using topfers reagent and phenolphthalein indicators. 4.
The animals were divided into 7 groups of 6 animals each. Animals were deprived of food for 48 hours but had free access to water. Group 1 received the vehicle Tween 80 (1%, 1 ml) which served as the control. Group 2 received ranitidine at a dose of 50-mg/kg-body weight, which served as standard for comparison. Group 3 to 7 received at a dose of 50, 25, 15, 10 and 5 mg/kg body weight respectively. After one hour of administration of drug the stomach was ligated at the pylorus under ether anesthesia. 4 hours after pylorus ligation, the animals were sacrificed and the contents drained and centrifuges at 5000 rpm for 10 minutes. Aliquots of supernatant were used for determination of total acid by titrating with 0.01N NaOH using topfers reagent and phenolphthalein indicators.

Experiment [2] concerns ethanol induced gastric ulcers. In words: Ethanol induced ulcers. Particulars: rats, ethanol challenge; for Acidity Total mEg / Gastric content / pH: 4 hours after pylorus ligation. As to the method: Stress induced gastric ulceration The commercially available drug ranitidine (sigma), Omeprazole (sigma) and sucralfate (Merck) were used as reference standard in experimental models. The Tween-80 (SD fine chemicals) was used as vehicle for the administration of the drug, which is used as control. The animals were divided into 22 groups of 6 animals each. Animals were deprived of food for 48 hours but had free access to water. Group 1 received the vehicle Tween 80 (1%, 1 ml) which served as the control. Group 2 received ranitidine at a dose of 50-mg/kg-body weight, which served as standard for comparison. Group 3 to received Omeprazole at a dose of 30-mg/kg body weight, which served as standard for comparison. Group 4 received sucralfate at a dose of 400-mg/kg body weight, which served as standard for comparison. Group 5 to 22 received at a dose of 25 mg/kg body weight. Lesions were induced 1 hour after ethanol challenge animals. The stomach was ligated at the pylorus under ether anesthesia. 4 hours after pylorus ligation, the animals were sacrificed and the contents drained and centrifuges at 5000 rpm for 10 minutes. Aliquots of supernatant were used for determination of total acid by titrating with 0.01N NaOH using topfers reagent and phenolphthalein indicators. […] The animals were divided into 9 groups of 6 animals each. Animals were deprived of food for 48 hours but had free access to water. Group 1 received the vehicle Tween 80 (1%, 1 ml) which served as the control. Group 2 received ranitidine at a dose of 50-mg/kg-body weight, which served as standard for comparison. Group 3 to received Omeprazole at a dose of 30-mg/kg body weight, which served as standard for comparison. Group 4 received sucralfate at a dose of 400-mg/kg body weight, which served as standard for comparison. […] Lesions were induced 1 hour after ethanol challenge animals. The stomach was ligated at the pylorus under ether anesthesia. 4 hours after pylorus ligation, the animals were sacrificed and the contents drained and centrifuges at 5000 rpm for 10 minutes. Aliquots of supernatant were used for determination of total acid by titrating with 0.01N NaOH using topfers reagent and phenolphthalein indicators.

In experiment [3] the test system is gastric ulceration in cold restraint rats. In words: Cold restraint (stress) induced ulcers. Also on record: Ulcer index Mean(SE): scale not given here. Conditions: for inhibition at 25 mg/kg: po; for inhibition at 25 mg/kg / Ulcer index Mean(SE): rats, 4° C. for 2 hours.
Description: as §1, §2
(§3) The antiulcer activity of the compounds was studied. The animals were divided into 21 groups of 7 animals each. Group 1 received the vehicle Tween 80 (1%, 1 ml) which served as the control. Group 2 received ranitidine at a dose of 50-mg/kg body weight, which served as standard for comparison. Group 3 to 21 at a dose of 25 mg/kg body weight. Animals were deprived of food 48 hours before the experiment. The water was allowed for free access. Rats were administered per orally with compounds and the drug ranitidine. The water was removed 1 hour before restraint and exposed to a temperature of 4° C. for 2 hours. Two hours after stress, the animals were sacrificed. The stressed animals were opened along the greater curvature and the severity of gastric ulcer was assessed in terms of mean ulcer index. 2.
as §3, with “8” for “21”, “6” for “7”, “50, 25, 15, 10 and 5” for “25”, “weight respectively.” for “weight.”, “index.” for “index. 2.”

Setting [4] is: Rattus norvegicus, 25 mg/kg per orally.

`O=c1cc(-c2ccccc2)oc2cc(O)c(O)c(O)c12` [Baicalein, 5,6,7-trihydroxy-2-phenyl-chromen-4-one]: the inhibition at 25 mg/kg in experiment [1] is 9.51%; with Pylorus ligated rats it was 18.9%; in experiment [2] (Rattus norvegicus, 25 mg/kg), 20%; in experiment [3] (setting [4]) it was 3.52%. Further, the “Ulcer index Mean(SE)” value in experiment [1] is 40.83; in the experiment with Pylorus ligated rats, 40.66 (±5.50); in experiment [2] (25 mg/kg) it was 43.33 (±3.33); in experiment [3] (25 mg/kg per orally), 29.28. Also, the “Acidity Total mEg” value is 49.21 (±2.20) m Eg in the experiment on Pylorus ligated rats and 45.21 (±3.10) mEg in experiment [2] (25 mg/kg). Moreover, the Gastric content with Pylorus ligated rats is 2.00 (±0.22); in experiment [2] (25 mg/kg), 3.5 (±0.20). Further, the results for the pH (in the experiment with Pylorus ligated rats; in experiment [2] (25 mg/kg)) were 3.01 (±0.30) and 3.33 (±0.10), respectively.

Consider `O=c1cc(-c2ccccc2)oc2cc(OC3OC(CO)C(O)C(O)C3O)cc(O)c12` (stereo not shown) [CG, 5-Hydroxy-2-phenyl-7-(3,4,5-trihydroxy-6-hydroxymethyl-tetrahydro-pyran-2-yloxy)-chromen-4-one], for which the inhibition at 25 mg/kg in experiment [1] stood at 52%; in the experiment on Pylorus ligated rats, 50.2%; in experiment [2] (Rattus norvegicus, 25 mg/kg), 52.5%; in experiment [3] (setting [4]) it was 47.7%. Besides, the “Ulcer index Mean(SE)” value in experiment [1] is given as 21.66; with Pylorus ligated rats, 24.93 (±1.66); in experiment [2] (25 mg/kg), 31.66 (±4.41); in experiment [3] (25 mg/kg per orally), 21.00. The “Acidity Total mEg” value is listed as 44.33 (±2.33) m Eg in the experiment with Pylorus ligated rats and 20.01 (±4.41) mEg in experiment [2] (25 mg/kg). The Gastric content in the experiment on Pylorus ligated rats is listed as 1.50 (±0.28); in experiment [2] (25 mg/kg), 5.90 (±0.49). For the same compound, the pH is recorded as 3.50 (±0.28) with Pylorus ligated rats and 5.90 (±0.49) in experiment [2] (25 mg/kg).

With `O=c1cc(-c2ccccc2)oc2cc(OCCCN3CCOCC3)cc(O)c12` [CHM-2, 5-Hydroxy-7-(3-morpholin-4-yl-propoxy)-2-phenyl chromen-4-one], the inhibition at 25 mg/kg in experiment [1] is 55.6%; with Pylorus ligated rats, 48.5%; in experiment [2] (Rattus norvegicus, 25 mg/kg), 25%; in experiment [3] (setting [4]), 35.1%. Moreover, the “Ulcer index Mean(SE)” value is recorded as 19.99 in experiment [1], 25.82 (±2.00) in the experiment with Pylorus ligated rats, 40.11 (±3.65) in experiment [2] (25 mg/kg) and 26.42 in experiment [3] (25 mg/kg per orally). Further, the “Acidity Total mEg” value in the experiment with Pylorus ligated rats is 41.48 (±3.20) m Eg; in experiment [2] (25 mg/kg) it was 38.28 (±2.24) mEg. Also, the Gastric content was 1.88 (±0.62) with Pylorus ligated rats and 2.8 (±0.72) in experiment [2] (25 mg/kg). Moreover, the pH in the experiment with Pylorus ligated rats is recorded as 3.79 (±0.20); in experiment [2] (25 mg/kg), 4.00 (±0.18).

For the compound `O=c1cc(-c2ccccc2)oc2cc(OCCCCN3CCOCC3)cc(O)c12` [CHM-3, 5-Hydroxy-7-(4-morpholin-4-yl-butoxy)-2-phenyl chromen-4-one], the inhibition at 25 mg/kg was 51.7% in experiment [1]; 45.2% in the experiment on Pylorus ligated rats; 36.2% in experiment [2] (Rattus norvegicus, 25 mg/kg); 52.6% in experiment [3] (setting [4]). Further, the “Ulcer index Mean(SE)” value in experiment [1] is listed as 21.77; in the experiment on Pylorus ligated rats it was 27.46 (±3.00); in experiment [2] (25 mg/kg), 42.50 (±3.81); in experiment [3] (25 mg/kg per orally), 19.28. Also, the “Acidity Total mEg” value was 44.10 (±2.20) m Eg with Pylorus ligated rats and 37.10 (±0.60) mEg in experiment [2] (25 mg/kg). For the same compound, the Gastric content in the experiment with Pylorus ligated rats is 2.24 (±0.22); in experiment [2] (25 mg/kg), 3.8 (±0.30). In addition, the values for the pH (in the experiment with Pylorus ligated rats; in experiment [2] (25 mg/kg)) were 3.41 (±0.16) and 4.16 (±0.12), respectively.

`CN1C(=O)CN=C(c2ccccc2)c2cc(Cl)ccc21` [Diazepam, reference compound] had an inhibition at 1 mg/kg in experiment [3] (Rattus norvegicus, 2 h) of 75.4%. Further, the “Ulcer index Mean(SE)” value in experiment [3] (1 mg/kg) is listed as 10.00.

As for `COc1ccc2[nH]c([S+]([O-])Cc3ncc(C)c(OC)c3C)nc2c1` (stereo not shown) [Omeprazole, reference compound], testing at 30 mg/kg in experiment [2] (Rattus norvegicus, 30 mg/kg) gave an inhibition of 67.5%. For the same compound, in experiment [2] (30 mg/kg), the “Ulcer index Mean(SE)” value is given as 23.33 (±2.21), the Gastric content is 3.5 (±0.68) and the pH is reported as 4.65 (±0.19).

As to sucralfate [reference compound], in experiment [2] (400 mg/kg), the Inhibition % was found to be 87.50%; the “Ulcer index Mean(SE)” value is 08.33 (±2.23); the “Acidity Total mEg” value was 58.00 (±2.30) mEg; the Gastric content is 3.01 (±0.48) and 3.0 (±0.48). For the same compound, in experiment [2] (400 mg/kg), the pH was 3.00 (±0.19).
